The record followed here is patent US9265845B2, “Imaging methods using engineered integrin binding peptides” (The Board of Trustees of the Leland Stanford Junior …, priority 2006, dated 2016).

Entries after “also recorded” stand apart in the source; their conditions may differ.

Data set [1] deals with U87MG glioblastoma cells. Put plainly: Blocking of U87MG cell adhesion to fibronectin-coated plates. It counts as cell-based. The text has this: (§1) The present engineered peptides may be used in a variety of ways. If the peptides are attached to a surface, they may be used to attract/recruit cells to grow on the surface. For example, the present peptides may be applied to prosthetic devices, implants, bone grafts, and the like to promote tissue growth and healing at the site. They may be attached to culture dishes and promote attachment and differentiation of cells in culture. In addition, the present engineered peptides may be used to modulate cell binding to selected integrins such as α5β1, αvβ3 and αvβ5, particularly αvβ3, by adding the peptides to a cell culture to prevent cells expressing these integrins from adhering to a substrate. […] Also, the present 2.5F, 2.5D and 1.5B peptides were tested for blocking adhesion of U87MG glioblastoma cells to fibronectin-coated plates.
(§2) In another experiment, the ability of engineered knottin peptides to block U87MG cell adhesion to vitronectin- and fibronectin-coated microtiter plates. Vitronectin is a natural ligand for several integrins, including αvβ3 and αvβ5. The RGD-containing peptides were all able to inhibit U87MG cell adhesion to vitronectin-coated plates in a dose-responsive manner. […] Fibronectin also binds to several integrins, (including αvβ3 and α5β1), but the α5β1 integrin receptor is generally selective for fibronectin.

A further data set concerns the target α5β1 integrin (Homo sapiens, UniProt P05556+P08648). Put plainly: Competition of 125I-echistatin to detergent-solubilized plate-coated integrin. Format: binding. The following applies: 0.06 nM 125I echistatin, 5 nM and 50 nM peptide. The procedure:
(§3) FIG. 10A through FIG. 10D is a series of histograms showing binding specificities to integrins αvβ3, αvβ5, α5β1, and αiibβ3 for engineered EETI-RGD peptides compared to controls. Error bars represent experiments performed in triplicate. Competition binding of 0.06 nM ^125I echistatin with 5 nM (black bars) and 50 nM (grey bars) unlabeled peptide to plate-coated integrins was measured. […] The engineered peptides have very little binding to αiibβ3 integrin.
(§4) This was done by competition of ^125I-echistatin to detergent-solubilized integrin receptors coated onto microtiter plates (see FIG. 10). […] This is consistent with previous studies which have shown αv integrin receptors can accommodate a wide range of RGD-containing cyclic structures. […] However, since α5β1 integrins are expressed on many tumors and are all involved in mediating angiogenesis and metastasis, a broad spectrum agent that targets all three integrins will be useful for diagnostic and therapeutic applications. With the exception of echistatin, all of the RGD-containing peptides bound weakly to the αiibβ3 receptor, showing the specificity of the present peptides for the αv and α5-containing integrin heterodimers. This characteristic is valuable for molecular imaging and therapeutic applications, since binding to αiibβ3 on platelet cells prevents blood clotting and would lead to non-specific in vivo effects.

The target in the next data set is αvβ3 integrin (Homo sapiens, UniProt P05106+P06756). Described as above. Format: binding. The following applies: 0.06 nM 125I echistatin, 5 nM and 50 nM peptide. On the procedure:
as §3, §4

A further data set deals with αvβ5 integrin (Homo sapiens, UniProt P06756+P18084). Described as above. Format: binding. The following applies: 0.06 nM 125I echistatin, 5 nM and 50 nM peptide. The procedure: as §3, §4
For data set [2], the system named is U87MG glioblastoma cells. Put plainly: Blocking of U87MG cell adhesion to vitronectin-coated plates. Format: cell-based. The following applies: vitronectin-coated plates.
Description: as §1, §2
Whether the engineered AgRP peptides could block vitronectin-mediated adhesion to the U87MG cells was tested using an analogous assay. […] The AgRP peptides may not effectively block U87MG adhesion compared to the K562-αvβ3 cells because the αvβ5 integrins co-expressed on the surface of the U87MG cells could also contribute to vitronectin-mediated adhesion and compensate for the loss of αvβ3 integrin function.

A further data set relates to U87MG tumor. Nature of the data set: MicroPET imaging and biodistribution of radiolabeled peptides in U87MG tumor-bearing mice. Format: in vivo, mouse. The procedure: MicroPET imaging of tumor-bearing mice is performed on a microPET R4 rodent model scanner (Concorde Microsystems Inc, Knoxyille, Tenn.). U87MG tumor bearing mice are injected with PET imaging agent via the tail vein. At various times post injection, the mice are anesthetized with 2% isoflurane, and 10 min static scans are obtained. Images are reconstructed by a two-dimensional ordered expectation maximum subset algorithm as previously described. Regions of interest (ROI) are drawn over the tumor on decay corrected whole body images and ROI derived % injected dose per gram of tissue is determined. Statistical analysis is performed using the student's t-test for unpaired data. A 95% confidence level is used to determine statistical significance.
Female athymic mice bearing U87MG tumors were injected with 80-150 μCi of ^64Cu-DOTA-knottin 2.5D or 7-9 μCi of [^18F]-FB-E[knottin 2.5D]. Static images were taken at various timepoints post injection using a microPET R4 rodent model scanner (Concorde Microsystems Inc, Knoxyille, Tenn.). […] Uptake was also observed in the kidney as both probes cleared through the bladder.
Mice are sacrificed by exanguinations at various time points postinjection. Blood, tumor and the major organs and tissues are collected, wet-weighed and measured in a γ-counter. The % injected dose per gram is determined for each sample. For each mouse, radioactivity of the tissue samples is calibrated against a known aliquot of the injectate. Values are reported as the mean±standard deviation.
The following Table 10 quantifies the ^64Cu-DOTA knottin uptake by direct tissue sampling of the mice up to 24 hours post injection and is reported in % ID (percent injected dose)/gram. Similar results were obtained with [^18F]-FB-E[knottin 2.5D].
A U87MG glioblastoma xenograft mouse model was used. U87MG cells were maintained at 37° C. in a humidified atmosphere containing 5% CO2 in Dulbecco's modified eagle medium, 10% heat-inactivated fetal bovine serum, and penicillin-streptomycin (all from Invitrogen). Animal procedures were carried out according to a protocol by Stanford University Administrative Panels on Laboratory Animal Care. Female athymic nude mice (nu/nu), obtained at 4-6 weeks of age (Charles River Laboratories, Inc.), were injected subcutaneously in the right or left shoulder with 2×10^7 U87MG glioblastoma cells suspended in 100 μL of PBS. Mice were used for in vivo imaging studies when their tumors reached approximately 8 to 10 millimeters in diameter.
U87MG tumor-bearing mice (n=3 or more for each probe) were injected with ˜100 μCi of ^64Cu-DOTA-conjugated peptides via the tail vein and imaged with a microPET R4 rodent model scanner (Siemens Medical) using 3 or 5 min static scans. […] Images were reconstructed by a two dimensional ordered expectation maximum subset algorithm and calibrated as previously described (Wu, Y, Zhang, X, Xiong, Z, et al. microPET imaging of glioma integrin {alpha}v{beta}3 expression using (64)Cu-labeled tetrameric RGD peptide. J Nucl Med 2005; 46:1707-18). ROIs were drawn over the tumor on decay-corrected whole body images using ASIPro VM software (Siemens Medical). The mean counts per pixel per minute were obtained from the ROI and converted to counts per milliliter per minute with a calibration constant. ROIs were converted to counts/g/min, and % ID/g values were determined assuming a tissue density of 1 g/mL. No attenuation correction was performed.

As for `CC[C@H](C)[C@@H]1NC(=O)[C@H]([C@@H](C)O)NC(=O)[C@@H](NC(=O)CN)CSSC[C@@H]2NC(=O)CNC(=O)[C@H](C)NC(=O)[C@H](CC(C)C)NC(=O)[C@@H]3CSSC[C@@H](C(=O)NCC(=O)O)NC(=O)[C@H](Cc4ccccc4)NC(=O)CNC(=O)[C@H](CC(N)=O)NC(=O)[C@@H]4CCCN4C(=O)CNC(=O)[C@H](CSSC[C@H](NC(=O)[C@H](CCC(=O)O)NC(=O)[C@H](CO)NC(=O)[C@@H]4CCCN4C(=O)[C@H](C)NC(=O)[C@H](Cc4c[nH]c5ccccc45)NC(=O)[C@H](CC(=O)O)NC(=O)CNC(=O)[C@H](CCCNC(=N)N)NC(=O)CNC1=O)C(=O)N[C@@H](CO)C(=O)N[C@@H](CCC(N)=O)C(=O)N[C@@H](CC(=O)O)C(=O)N[C@@H](CO)C(=O)N[C@@H](CC(=O)O)C(=O)N3)NC(=O)[C@H](C(C)C)NC2=O` [1.5B], the “blocking of U87MG cell adhesion to fibronectin, in words” value in the data set on U87MG glioblastoma cells [1] was “only echistatin and polypeptide 2.5F blocked adhesion”. For the same molecule, the “binding to α5β1 integrin, in words” value on α5β1 integrin is recorded as “only minimal binding”. Besides, at αvβ3 integrin, the “binding to αvβ3 integrin, in words” value is recorded as “strongest levels of binding”. Besides, the “binding to αvβ5 integrin, in words” value on αvβ5 integrin is listed as “strongest levels of binding”.

With `CC(C)C[C@@H]1NC(=O)[C@@H]2CSSC[C@@H](C(=O)NCC(=O)O)NC(=O)[C@H](Cc3ccccc3)NC(=O)CNC(=O)[C@H](CC(N)=O)NC(=O)[C@@H]3CCCN3C(=O)CNC(=O)[C@@H]3CSSC[C@H](NC(=O)[C@H]([C@@H](C)O)NC(=O)[C@H](CC(C)C)NC(=O)[C@@H]4CCCN4C(=O)[C@@H]4CCCN4C(=O)[C@H](CC(N)=O)NC(=O)[C@H](CC(=O)O)NC(=O)CNC(=O)[C@H](CCCNC(=N)N)NC(=O)[C@@H]4CCCN4C(=O)[C@H](CCCNC(=N)N)NC(=O)[C@@H]4CCCN4C(=O)[C@@H](NC(=O)CN)CSSC[C@H](NC(=O)CNC(=O)[C@H](C)NC1=O)C(=O)N[C@@H](C(C)C)C(=O)N3)C(=O)N[C@@H](CO)C(=O)N[C@@H](CCC(N)=O)C(=O)N[C@@H](CC(=O)O)C(=O)N[C@@H](CO)C(=O)N[C@@H](CC(=O)O)C(=O)N2` [2.5F], in the data set on U87MG glioblastoma cells [1], the “blocking of U87MG cell adhesion to fibronectin, in words” value is given as “blocked adhesion; also recorded: able to block”. Also, on α5β1 integrin, the “binding to α5β1 integrin, in words” value is “binds with strong affinity”. Further, the “binding to αvβ3 integrin, in words” value on αvβ3 integrin is on record as “strongest levels of binding”. Moreover, the “binding to αvβ5 integrin, in words” value at αvβ5 integrin is listed as “strongest levels of binding”. Also, the “blocking of U87MG cell adhesion to vitronectin, in words” value with U87MG glioblastoma cells [2] is “blocked adhesion better than controls”. Moreover, the “liver uptake, in words” value in the data set with U87MG tumor (64Cu-DOTA-labeled peptides, compared to 64Cu-DOTA-c(RGDyK)) is given as “lower liver uptake”. Moreover, the “tumor/blood ratios, in words” value in the data set on U87MG tumor (PET studies, 4 h post injection, compared to 2.5D) is reported as “much higher tumor/blood ratios”. Besides, the “PET tumor targeting / imaging signal, in words” value with U87MG tumor (radiolabeled peptides, U87MG tumor-bearing mice) is given as “slower tumor washout compared to 2.5D”.
